# Counter-ions that a name gives are not always drawn.
# What was measured:
# [1] = system: human glioblastoma cell line U-87; assay: U-87 cell viability by luminescence (ATP-Glo kit, Promega); format: cell-based
# Description: FIG. 1.—ICI 118,551 is active as an antitumoral agent decreasing cell viability in the glioblastoma cell line and including the stem cell subpopulation. A: U-87 cell line expresses beta-adrenergic receptors type 2, as shown by confocal microscopy using a monoclonal antibody against human β2 adrenergic receptors (Abcam). B: ICI-118551 decreases viability of the human glioblastoma cell line U-87 either when grown in liquid suspension as oncospheres (gliospheres, stem cells) or in adhesion. Viability was quantified by luminescence using the ATP-Glo kit from Promega. C. β2-adrenergic receptor expression in the human glioblastoma cell line U87 was confirmed by mRNA expression by quantitative PCR in 3D cultures as gliospheres (HUVEC as positive control for β2-adrenergic receptor expression).
# β2-adrenergic receptor = conditions: reported in the literature; cited from earlier work
# U-87 stem cells = assay: Extreme limited dilution assay (ELDA) for oncosphere formation; format: cell-based, human; conditions: different concentrations; spheres quantified at 14 days
# Experimental: (§1) A: photographs of gliospheres formation after 72 hours of drug treatment. U-87 cells were cultured in medium for gliosphere formation, and either treated with vehicle (control, on the left), or with ICI 118,551, and propranolol at different concentrations from 10 to 100 μM. […] B: Limit dilution assay experiment (ELDA) for oncosphere formation in the presence of different concentrations of ICI 118,551 and propranolol.
# (§2) Following the protocol described elsewhere (Diaz-Guerra, E.; Lillo, M. A.; Santamaria, S.; Garcia-Sanz, J. A., Intrinsic cues and hormones control mouse mammary epithelial tree size. FASEB J 2012, 26 (9), 3844-53). Cells were detached from the plate with trypsin (Invitrogen) and plated in complete medium (DMEM/F-12 medium with GlutaMAX) supplemented with B27 (Gibco), 10 ng/ml epidermal growth factor (EGF: Invitrogen) and 10 ng/ml basic fibroblast growth factor (bFGF: Millipore) and they were maintained at 37° C. in 5% CO2. For the ELDA assay cells were dissociated to single cells with trypsin, and seeded at different dilutions (from 100 to 10 for U-87 cells) in sphere complete media following procedures described in Ponti, D et al., (Cancer Res 2005, 65 (13), 5506-11.). The final number of spheres was quantified at 14 days, and the final data and statistical significance was obtained with ELDA software (Hu, Y. et al J Immunol Methods 2009, 347 (1-2), 70-8). […]
# [2] = system: U-87 glioblastoma cell line; assay: RT-qPCR of stemness and neural differentiation marker mRNAs in U-87; format: cell-based, human; conditions: 48 hours; mRNA by RT-qPCR; dose-dependent
# Experimental: FIG. 3.—ICI 118,551 and propranolol decreased stemness biomarker expression in U-87 glioblastoma cell line, but increased the neural differentiation markers. A: The treatment of U-87 with ICI-118,551 and propranolol during 48 hours decreases the expression of stemness associated genes as GD3 synthase, ALDH1, Prominin (CD133), Sox2 and Nanog, whereas B: favors the expression of genes involved in neural cell differentiation (MAP2, GFAP and Nestin). Expression of the corresponding mRNAs was measured by RT-qPCR.
# (§3) RNAt was isolated using the Direct-zol RNA MiniPrep Kit (ZymoResearch) from U-87 cells washed with PBS, scraped off the plates and spun down. The pellet was treated with the Tri Reagent and homogenized for 5 min at room temperature before using the MiniPrep Kit as per instructions. The quality and concentration of the RNAt was evaluated by measuring the absorbance at 260, 230 and 280 nm with an ND-1000 spectrophotometer (NanoDrop Technologies, Wilmington, DE, USA). In all cases, the expected 260/280 (˜2.0) and 260/230 (2.0-2.2) ratio values accepted for pure RNA were obtained. To detect the two target miRs, 0.5 μg of the RNAt extracted from the cells was used for hybridization prior to measurement on the dual amperometric platform.
# (§4) The qScript microRNA Quantification System (Quanta BioSciences, Inc., Gaithersburg, MD, USA) was used to assess miR-21 and miR-205 expression. In brief, cDNA was synthesized using the qScript microRNA cDNA Synthesis Kit, using 10 ng of initial RNA per PCR reaction. The PCR conditions consisted of an initial activation at 50° C. for 2 min, followed by 40 cycles of 95° C. for 5 s, and 60° C. for 30 s in LightCycler 480 Real-Time PCR System (Roche). The Ct (threshold cycle) value for each primer was normalized to that of RNU6. To assess gene expression, cDNA was synthesized with the transcriptor first strand cDNA synthesis Kit (Roche) under the following PCR conditions: 40 amplification cycles of 95° C. for 10 seconds, 60° C. for 30 seconds and 72° C. for 30 seconds. ACTB was used as a reference gene for normalization and the real-time PCR reactions were performed in triplicate using the PerfeCTa SYBR Green SuperMix (Quanta BioSciences) for miRNAs and the FastStart Universal SYBR Green Master (Roche) for gene expression. The expression level of each gene was determined by the relative standard curve method and the primer sequences for target genes were obtained from the Universal ProbeLibrary Assay Design Center.
# However, mRNA from genes involved in neural cell differentiation, such as MAP2, GFAP and nestin (FIG. 3B), were increased in their expression (FIG. 3B). The expression of the corresponding mRNAs was measured by RT-qPCR.
# [3] = system: U-87 gliospheres xenografts; assay: Xenograft of U-87 gliospheres in NSG mice; format: in vivo; conditions: 3 mg/Kg body weight, 5 consecutive days immediately after xenograft, intraperitoneal
# Experimental: FIG. 4.—ICI 118,551 and Propranolol delay the tumor progression of U-87 xenografts in NSG immunodeppressed mice. A Xenograft using U-87 adherent cells: Mice (n=30) were inoculated with 10^6 cells of U-87 glioblastoma cell line, in the flank, as xenografts. Tumor volume was measured every 3 days. In A, when tumors reached around 100 mm^3 volume, mice were divided in 3 groups (n=9-10). One group was treated daily with 10 mg/Kg body weight with propranolol, another group with the same dose of ICI118,551, and the third group only with vehicle (DMSO). Drugs were intraperitoneally injected. […] B Xenograft using U-87 gliospheres: Mice were inoculated with 10^5 spheroids from the glioblastoma cell line U-87. […] The tumors were measured from the moment they were big enough to be sized.
# In the case of B, mice were divided in 3 groups of 10 mice, and were treated the first 5 days after xenograft establishment with intraperitoneal injection of propranolol, or ICI118,551 at 3 mg/Kg body, or vehicle. […] From this moment on, tumor size was measured every 2-3 days along 4 weeks, and then the mice were sacrificed.
# On the other hand, xenografts using U-87 gliospheres were also used. […] The tumors were measured from the moment they were big enough to be sized.
# U-87 xenografts = assay: Xenograft of U-87 adherent cells in NSG mice; format: in vivo; conditions: intraperitoneal; for decrease in the tumor volume: 10 mg/Kg body daily, from tumor volume around 100 mm^3, versus vehicle; for adverse effects: 10 mg/Kg body weight daily, NSG mice
# Experimental: FIG. 4.—ICI 118,551 and Propranolol delay the tumor progression of U-87 xenografts in NSG immunodeppressed mice. A Xenograft using U-87 adherent cells: Mice (n=30) were inoculated with 10^6 cells of U-87 glioblastoma cell line, in the flank, as xenografts. Tumor volume was measured every 3 days. In A, when tumors reached around 100 mm^3 volume, mice were divided in 3 groups (n=9-10). One group was treated daily with 10 mg/Kg body weight with propranolol, another group with the same dose of ICI118,551, and the third group only with vehicle (DMSO). Drugs were intraperitoneally injected. […] B Xenograft using U-87 gliospheres: Mice were inoculated with 10^5 spheroids from the glioblastoma cell line U-87. Mice were divided in 3 groups of 9-10 animals and treated immediately after xenograft for 5 consecutive days with either 3 mg/Kg body weight of propranolol, or ICI 118,551, or only vehicle. The tumors were measured from the moment they were big enough to be sized.
# Male 7-8 weeks old NOD scid gamma (NSG) mice were injected in the dorsal flank with a total of either 10^6 cells of U-87 cell line (A), or with 10^5 cells coming from disaggregated gliospheres (B). In the case of A, when tumor size reached 100 mm^3 volume, mice were divided at random in 3 groups, of 9/10 mice each. One group was treated with intraperitoneal daily injection of 10 mg/Kg body of propranolol, other group with the same amount of ICI118,551, and finally, a control group was injected with vehicle. Tumor size was measured by a caliper every 2-3 days. Mice were sacrificed when tumor volume average of the control group reached an end point established on our ethical procedures.
# Xenografts were made using U-87 adherent cells: Mice (n=30) were inoculated with 10^6 cells of U-87 glioblastoma cell line, in the flank, as xenografts. Tumor volume was measured every 3 days. When tumors reached around 100 mm^3 volume, mice were divided in 3 groups (n=9-10). One group was treated daily with 10 mg/Kg body weight with propranolol, another group with the same dose of ICI118,551, and the third group only with vehicle (DMSO). Drugs were intraperitoneally injected.
# U-87 gliospheres = assay: Gliosphere formation of U-87 cells under drug treatment; format: cell-based, human; conditions: 10 to 100 μM; 72 hours of drug treatment
# Experimental: as §1, §2
# [4] = system: U87 Glioblastoma Cell Line; assay: Expression of miR-21 and its targets PDCD4 and PTEN in U87 cells; format: cell-based, human; conditions: 48 hours, increasing amounts
# Experimental: FIG. 5. […] Furthermore, ICI increases the expression levels of […] targets such as PDCD4-proapoptotic agents1 (middle)—and PTEN—a glioblastoma suppressor (right).
# as §3
# as §4, with “ACTB was used as a reference gene for normalization and the real-time PCR reactions were performed in triplicate using the PerfeCTa SYBR Green SuperMix (Quanta BioSciences) for miRNAs and the FastStart Universal SYBR Green Master (Roche) for gene expression.” left out, “Center. […]” for “Center.”
SMILES,"differential sensitivity to the drug, adhesion versus 3D gliospheres ([1]; 2D cells in adhesion compared with 3D gliospheres in suspension)","viability of the cancer stem cells ([1]; 3D gliospheres, low μM concentrations)","viability of U-87 ([1]; different doses, grown in liquid suspension as oncospheres (gliospheres) or in adhesion, ATP-Glo luminescence)",β2/β1 selectivity ratio (β2-adrenergic receptor),ELDA dilution factor compared to control (U-87 stem cells),"expression of neural cell differentiation genes MAP2, GFAP and nestin [2]","expression of stemness associated genes GD3 synthase, ALDH1, prominin (CD 133), Sox2 and nanog [2]",rate of tumor growth versus vehicle treated mice [3],decrease in the tumor volume (U-87 xenografts),adverse effects (U-87 xenografts),inhibition of gliosphere formation (U-87 gliospheres),expression level of PDCD4 [4],expression level of PTEN [4],mRNA-21 expression ([4]; compared with Propranolol)
"Cc1ccc(OCC(O)C(C)NC(C)C)c2c1CCC2 [ICI 118,551, erythro-D,L-1(methylinden-4-yloxy)-3-isopropylaminobutan-2-ol]",more sensitive the cells grown in adhesion than the 3D gliospheres,strongly affects the viability,decreased the viability,at least 123,increases,increased,decreased significantly,significant delay,around 30%,no adverse effects observed,dose-dependent inhibition,increases,increases,notably decreased
"COc1ccc(OC)c(C(O)C(C)NC(C)(C)C)c1 (racemic) [Butoxamine, DL-erythro-α-(2,5-dimethoxyphenyl)-β-t-butyl aminopropanol hydrochloride]",–,–,–,at least 17,–,–,–,–,–,–,–,–,–,–
CC(C)NCC(O)COc1cccc2ccccc12 (stereo not shown) [propranolol],–,–,–,–,increases,increased,decreased significantly,significant delay,around 30%,no adverse effects observed,dose-dependent inhibition,–,–,–

# Source: US12622884B2, “Treatment and prevention of glioblastoma” (CONSEJO SUPERIOR DE INVESTIGACIONES CIENTÍFICAS, priority 2018, dated 2026)
